Laboratory results reported in patent US20230279001A1, “IMIDAZO[1,2-A]PYRIDINE COMPOUNDS FOR THE TREATMENT OF AUTOIMMUNE DISEASE” (Hoffmann-La Roche Inc., priority 2020, published 2023).
Converted amounts (≈) assume the structure as drawn. Where two headings read alike, the source gives them in different places.

Legend:
[1] = Single dose pharmacokinetics (PK) study in male Wister-Han rats; format: in vivo, rat
Procedure: Pharmacokinetic properties of selected compounds were assessed by single dose PK studies in Male Wister-Han Rats (vendor: Beijing Vital River Laboratory Animal Technology Co., Ltd). Briefly, two groups of animals were administered a single dose of respective compound intravenously (IV, bolus) at 2 mg/kg or orally (PO, by gavage) at 10 mg/kg. Blood samples (approximately 150 μL) were collected via Jugular vein at 5 min (only for IV), 15 min, 30 min, 1 h, 2 h, 4 h, 7 h and 24 h post-dose. Blood samples were placed into tubes containing EDTA-K2 anticoagulant and centrifuged at 3000 rpm for 15 min at 4° C. to separate plasma from the samples. After centrifugation, the resulting plasma was transferred to clean tubes for bioanalysis with LC/MS/MS. The pharmacokinetic parameters were calculated using non-compartmental analysis. The volume of distribution (VSS), half-life (T1/2) and clearance (CL) were obtained based on the plasma concentration-time curve after IV dose. The peak concentration (Cmax) was recorded directly from experimental observations after PO dose. The area under the plasma concentration-time curve (AUC0-last) was calculated using the linear trapezoidal rule up to the last detectable concentration. The bioavailability (F) was calculated based on the dose normalized AUC0-last after IV and PO dose.
The VSS of a drug represents the degree to which a drug is distributed in body tissue rather than the plasma. VSS is directly proportional with the amount of drug distributed into tissue. A higher VSS indicates a greater amount of tissue distribution.

[2] = system: Balb/c 3T3 mouse fibroblasts; test: 3T3 in vitro phototoxicity assay (Neutral Red uptake); format: cell-based; settings: 3T3 fibroblasts
Excerpt: Phototoxicity is defined as a toxic response that is elicited after the first exposure of the skin to certain chemicals and subsequent exposure to light, or that is induced similarly by skin irradiation after systemic administration of a chemical substance. The assay used in this study is designed to detect the phototoxic potential of a chemical by using a simple in vitro cytotoxicity assay with Balb/c 3T3 mouse fibroblasts. The principle of this test is a comparison of the cytotoxicity of a chemical when tested with and without exposure to a non-toxic dose of UVA-light. Cytotoxicity is expressed as a dose dependent reduction of the growth rate of cells as determined by uptake of the vital dye Neutral Red one day after treatment. […]
For this study the Neutral Red uptake (NRU) assay of Borenfreund and Puerner (Borenfreund, E, Puerner J A. Toxicity determined in vitro by morphological alterations and Neutral Red absorption. Toxicology Lett. 1985; 24:119-124) modified according to INVITTOX protocol No 78 (ERGATT/FRAME data bank of in vitro techniques in toxicology. INVITTOX PROTOCOL No 78. 3T3 NRU Phototoxicity Assay. March 1994) has been adapted to examine a possible phototoxic potential of the test item. […]
For each test item the microtiter plates were prepared according to Table 6. […] UV flux was measured with a UV-meter (Dr. Gröbel RM21). […]

Row | F ([1]; dose normalized AUC0-last after IV 2 mg/kg and PO 10 mg/kg) [%] | AUC(0-t) ([1]; rat, IV 2 mg/kg, plasma, read-out: IV AUC0-last) [ng·h/mL] | Cmax ([1]; rat, PO 10 mg/kg, plasma) [ng/mL] | AUC(0-t) ([1]; rat, PO 10 mg/kg, plasma, read-out: PO AUC0-last) [ng·h/mL] | clearance ([1]; rat, plasma, IV 2 mg/kg) [mL/min/kg] | half-life ([1]; rat, plasma, IV 2 mg/kg) [h] | Vd ([1]; rat, plasma, IV 2 mg/kg, read-out: Vss) [L/kg] | Compound | Phototoxicity factor ([2]; Factor=IC50(−UV)/IC50(+UV)) | IC50 ([2]; Mus musculus, BALB/c3T3, light or radiation study, approx. 5 J/cm^2 UVA light, Neutral Red uptake) [µg/mL]
1 | 69 | 1060 | 257 | 3640 | 28 | 8.6 | 15 | Cc1cc(-c2ccc(N3CCC(N4CCNCC4)CC3)nc2C(F)F)cn2ccnc12 [Example 10, 6-[2-(difluoromethyl)-6-(4-piperazin-1-yl-1-piperidyl)-3-pyridyl]-8-methyl-imidazo[1,2-a]pyridine] |  | 
2 |  |  |  |  |  |  |  | CCc1nc(N2CCC(N3CC4(CNCCO4)C3)CC2)ccc1-c1cc(C)c2nccn2c1 [Example 14, 2-[1-[6-ethyl-5-(8-methylimidazo[1,2-a]pyridin-6-yl)-2-pyridyl]-4-piperidyl]-5-oxa-2,8-diazaspiro[3.5]nonane] | 1 | 100 (≈ 224 µM)
